This passage reports Kd results from ChEMBL document CHEMBL4699579, “A Peptidyl Inhibitor that Blocks Calcineurin-NFAT Interaction and Prevents Acute Lung Injury” (J Med Chem, 2020).

A short description of the assay: Binding affinity to GST-tagged Calcineurin (unknown origin) incubated for 1 hr by fluorescence polarization assay. The arrangement: species or system Homo sapiens. On the technique in general: Polarisation of emitted light reports the rotation of a fluorescent probe.

Structures are written as SMILES. Non-standard residues stand in square brackets, D forms with d. Residues, ends and D or L forms follow the SMILES beside them. *: point of attachment. X5 = O=C(O)c1cc(NC(=S)*)ccc1-c1c2ccc(=O)cc-2oc2cc(O)ccc12; Tle = CC(C)(C)[C@H](N)C(=O)O; Bz = O=C(c1ccccc1)* Some results are limits rather than exact numbers.

For orientation: Kd means the constant that tells how readily two partners part at equilibrium. In the case of `CC[C@H](C)[C@H](NC(=O)[C@@H](NC(=O)c1cccc(Cl)c1Cl)C(C)(C)C)C(=O)N[C@H](C(=O)N[C@H](C(=O)N[C@H](C(=O)N[C@@H](CC(=O)O)C(=O)N[C@@H](CCC(N)=O)C(=O)N[C@@H](Cc1ccc(O)cc1)C(=O)N[C@H](CCCCN)C(=O)NCCC(=O)N[C@@H](CCCCNC(=S)Nc1ccc(-c2c3ccc(=O)cc-3oc3cc(O)ccc23)c(C(=O)O)c1)C(N)=O)[C@@H](C)O)[C@@H](C)CC)C(C)(C)C`, the Kd was 22 nM. For the compound `CC[C@H](C)[C@H](NC(=O)[C@@H](NC(=O)c1cccc(Cl)c1Cl)C(C)(C)C)C(=O)N[C@H](C(=O)N[C@H](C(=O)N[C@H](C(=O)N[C@@H](CCC(N)=O)C(=O)N[C@@H](Cc1c[nH]cn1)C(=O)N[C@H](CC(C)C)C(=O)N[C@@H](Cc1c[nH]cn1)C(=O)NCCC(=O)N[C@@H](CCCCNC(=S)Nc1ccc(-c2c3ccc(=O)cc-3oc3cc(O)ccc23)c(C(=O)O)c1)C(N)=O)[C@@H](C)O)[C@@H](C)CC)C(C)(C)C`, the Kd is 4.7 nM. Take `CC[C@H](C)[C@H](NC(=O)[C@@H](NC(=O)c1cccc(Cl)c1Cl)C(C)(C)C)C(=O)N[C@H](C(=O)N[C@H](C(=O)N[C@H](C(=O)N[C@@H](Cc1ccc(O)cc1)C(=O)N[C@H](CCC(=O)O)C(=O)N[C@@H](Cc1ccc(F)cc1)C(=O)N[C@@H](Cc1c[nH]cn1)C(=O)NCCC(=O)N[C@@H](CCCCNC(=S)Nc1ccc(-c2c3ccc(=O)cc-3oc3cc(O)ccc23)c(C(=O)O)c1)C(N)=O)[C@@H](C)O)[C@@H](C)CC)C(C)(C)C`: the Kd was determined as 12 nM. Regarding `CC[C@H](C)[C@H](NC(=O)[C@@H](NC(=O)c1cccc(Cl)c1Cl)C(C)(C)C)C(=O)N[C@H](C(=O)N[C@H](C(=O)N[C@H](C(=O)N[C@@H](CCC(N)=O)C(=O)N[C@@H](Cc1c[nH]cn1)C(=O)N[C@H](CC(C)C)C(=O)N[C@@H](CO)C(=O)NCCC(=O)N[C@@H](CCCCNC(=S)Nc1ccc(-c2c3ccc(=O)cc-3oc3cc(O)ccc23)c(C(=O)O)c1)C(N)=O)[C@@H](C)O)[C@@H](C)CC)C(C)(C)C`, the Kd was found to be 9.1 nM.

For the compound `CC[C@H](C)[C@H](NC(=O)[C@@H](NC(=O)CNC(=O)[C@H](Cc1c[nH]cn1)NC(=O)[C@@H]1CCCN1C(=O)CNC(C)=O)C(C)(C)C)C(=O)N[C@H](C(=O)N[C@H](C(=O)N[C@H](C(=O)NCC(=O)N1CCC[C@H]1C(=O)N[C@@H](Cc1c[nH]cn1)C(=O)N[C@@H](CCC(=O)O)C(=O)N[C@@H](CCC(=O)O)C(=O)N[C@@H](Cc1ccc(O)cc1)C(=O)N[C@@H](CCCCNC(=S)Nc1ccc(-c2c3ccc(=O)cc-3oc3cc(O)ccc23)c(C(=O)O)c1)C(N)=O)[C@@H](C)O)[C@@H](C)CC)C(C)(C)C` (Ac-GPHG[Tle]I[Tle]ITGPHEEYK(X5)-NH2), the Kd was determined as 92 nM. For the compound `CC[C@H](C)[C@H](NC(=O)[C@@H](NC(C)=O)C(C)(C)C)C(=O)N[C@H](C(=O)N[C@H](C(=O)N[C@H](C(=O)NCC(=O)N1CCC[C@H]1C(=O)N[C@@H](Cc1c[nH]cn1)C(=O)N[C@@H](CCC(=O)O)C(=O)N[C@@H](CCC(=O)O)C(=O)N[C@@H](Cc1ccc(O)cc1)C(=O)N[C@@H](CCCCNC(=S)Nc1ccc(-c2c3ccc(=O)cc-3oc3cc(O)ccc23)c(C(=O)O)c1)C(N)=O)[C@@H](C)O)[C@@H](C)CC)C(C)(C)C` (Ac-[Tle]I[Tle]ITGPHEEYK(X5)-NH2), the Kd is more than 5400 nM.

For `CC[C@H](C)[C@H](NC(=O)[C@@H](NC(=O)c1ccccc1)C(C)(C)C)C(=O)N[C@H](C(=O)N[C@H](C(=O)N[C@H](C(=O)NCC(=O)N1CCC[C@H]1C(=O)N[C@@H](Cc1c[nH]cn1)C(=O)N[C@@H](CCC(=O)O)C(=O)N[C@@H](CCC(=O)O)C(=O)N[C@@H](Cc1ccc(O)cc1)C(=O)N[C@@H](CCCCNC(=S)Nc1ccc(-c2c3ccc(=O)cc-3oc3cc(O)ccc23)c(C(=O)O)c1)C(N)=O)[C@@H](C)O)[C@@H](C)CC)C(C)(C)C` (Bz-[Tle]I[Tle]ITGPHEEYK(X5)-NH2), the Kd came to 224 nM.
